Columns and labels:
[1] = Totox value of palm oil on storage; conditions: for days after which Totox value crosses threshold limit: threshold 30
Procedure: (§2) The shelf life of oil is studied by carrying out chemical analysis, which include studying peroxide value (represents extent of primary oxidation), Para-anisidine value (represents extent of secondary oxidation) and totox value (reflects total oxidation of oil). These parameters are determined for 1 kg of untreated oil and treated oil at every 15 days interval for samples stored at ambient temperature and at every 7 days interval for samples stored at 50° C. The treated oil being, the oil upon addition of 200 ppm of TBHQ (sample-A), 200 ppm of BHA (sample-B), 200 ppm and 500 ppm of pulverized green tea extract with 90% polyphenol (sample-C), 200 ppm and 500 ppm of rosemary extract (sample-D), 200 ppm and 500 ppm of green tea extract after cryogenic grinding (sample-E), 200 ppm and 500 ppm of crude green tea extract (sample-F) and PRESOL at 200 ppm and 500 ppm. The untreated oil is the control sample without any antioxidant.
(§3) The threshold limit for per oxide value under which oil can be used for safe consumption is 10 meq of O2/Kg oil. Similarly, the threshold limit of para-anisidine value and Totox value is 10 and 30, respectively.

[2] = Oil stability index (Rancimat) of palm oil; conditions: 200 ppm
Procedure: As used herein, ‘Oil Stability Index (OSI)’ is an American Oil Chemists Society (AOCS) approved method that determines the relative resistance of fat and oil samples to oxidation, which is defined by the following equation—
The oil stability index is determined using the Metrohm's Rancimat (Metrohm 743 Rancimat).
4.0 g of palm oil is weighed into the reaction vessel. The reaction vessel filled with oil is placed in a heating block. The temperature of the block is maintained at 100° C., 120° C. and 140° C., respectively. The oil is heated at the said temperatures, followed by passing air at a flow rate of 20 L/h. Flowing of air through the oil produces peroxides during primary oxidation and organic acids having low molecular weight, aldehydes and ketones with typical rancid odor during the secondary oxidation phase. These compounds are conveyed by the air flow into measurement vessel containing distilled water where conductivity is being checked continuously by sensor.

[3] = Peroxide value of palm oil on storage
Procedure: as §2, §3

[4] = Estimation of shelf life of sunflower oil (Rancimat temperature extrapolation); conditions: 200 ppm
Procedure: This is an aid for estimating the shelf life of oils and fats. The extrapolation makes use of the relationship between the measured induction time and the temperature given by van't Hoff's law. Several measurements are made at different temperatures and then extrapolated to the storage temperature. The values so obtained allow estimation of the storage stability of the oil or fat containing PRESOL.
The shelf life is calculated using Rancimat shelf life calculator.

[5] = Frying cycle analysis of palm oil (total polar compounds); conditions: palm oil
Procedure: (§1) Palm oil and sunflower oil with antioxidants added to it are obtained from a local refinery. Frying studies are carried out with control oil and by adding TBHQ (Sample A), BHA (Sample B), GT Pulverized (Sample C), ROS (Sample D), GT Cryo grinded (Sample E), GT Crude Extract (Sample F) and PRESOL, respectively to the oils. Experiments are carried out a concentration of 200 ppm and 500 ppm. Fresh potatoes of less reduced sugar content variety are used throughout the experiment which is purchased form a local supermarket. Oil samples are withdrawn from the fryer at the end of every day and stored at −4° C. until it is tested for quality parameters viz, total polar compounds. Polar compounds present in oil and fats are measured by column chromatography using standard method, ES ISO 8420:2012.

[6] = Effect of particle size on antioxidant activity (Rancimat induction time) in palm oil; conditions: 200 ppm in palm oil; Rancimat 120° C.
Procedure: Effect of particle size analysis on antioxidant activity is analysed with the help of Rancimat (Metrohm 743) which gives oxidative stability index based on the induction time (h). Rancimat analysis is carried out at two different temperature in order to set relationship between induction time and temperature of the studies.
In this, we have analyzed the particle size of samples with the help of Particle Size Analyzer (Microtrac, S3500) and its antioxidant activity with the help of Rancimat (Metrohm 743).

[7] = Shelf life of canola oil; conditions: 200 ppm
[8] = Oil stability index (Rancimat) of apricot oil; conditions: 200 ppm; for Induction Time at 200 ppm: in h
[9] = Oil stability index (Rancimat) of almond oil; conditions: 200 ppm; for Induction Time: in h
[10] = Estimation of shelf life of palm oil (Rancimat temperature extrapolation); conditions: 200 ppm
[11] = Effect of particle size on antioxidant activity (Rancimat induction time) in sunflower oil; conditions: 200 ppm in sunflower oil; Rancimat 100° C.
[12] = Oil stability index (Rancimat) of sunflower oil; conditions: 200 ppm
[13] = Frying cycle analysis of sunflower oil (total polar compounds); conditions: for Total Polar compounds of sunflower oil: 200 ppm
Procedure: as §1

[14] = Para-anisidine value of palm oil on storage
[15] = ambient temperature, day 0, 200 ppm
[16] = ambient temperature, day 15, 200 ppm
[17] = ambient temperature, day 30, 200 ppm
[18] = ambient temperature, day 45, 200 ppm
[19] = ambient temperature, day 60, 200 ppm
[20] = ambient temperature, day 75, 200 ppm
[21] = ambient temperature, day 90, 200 ppm
[22] = ambient temperature, day 105, 200 ppm
[23] = ambient temperature, day 120, 200 ppm
[24] = ambient temperature, day 135, 200 ppm
[25] = ambient temperature, day 150, 200 ppm
[26] = ambient temperature, day 165, 200 ppm
[27] = ambient temperature, day 180, 200 ppm

COc1ccc(O)c(C(C)(C)C)c1 [Sample B, butylated hydroxyanisole]
days after which Totox value crosses threshold limit ([1]; 50° C.): 180 days | Totox value [1, 15]: 3.497 | Totox value [1, 16]: 4.338 | Totox value [1, 17]: 6.561 | Totox value [1, 18]: 8.268 | Totox value [1, 19]: 10.827 | Totox value [1, 20]: 12.449 | Totox value [1, 21]: 13.181 | Totox value [1, 22]: 14.088 | Totox value [1, 23]: 16.114 | Totox value [1, 24]: 19.368 | Totox value [1, 25]: 20.994 | Totox value [1, 26]: 26.783 | Totox value [1, 27]: 29.993 | days after which Totox value crosses threshold limit ([1]; ambient temperature): 180 days | Induction Time ([2]; 100° C.): 43.33 h | Oxidative Stability Index (OSI) ([2]; 100° C.): 1.04 | Induction Time ([2]; 120° C.): 9.88 h | Oxidative Stability Index (OSI) ([2]; 120° C.): 1.02 | Induction Time ([2]; 140° C.): 2.51 h | Oxidative Stability Index (OSI) ([2]; 140° C.): 1.02 | Peroxide value ([3]; 50° C., day 0, 200 ppm): 0.482 | Peroxide value ([3]; 50° C., day 7, 200 ppm): 4.735 | Peroxide value ([3]; 50° C., day 15, 200 ppm): 9.973 | Peroxide value ([3]; 50° C., day 22, 200 ppm): 13.062 | Peroxide value ([3]; 50° C., day 30, 200 ppm): 16.45 | Peroxide value ([3]; 50° C., day 37, 200 ppm): 35.595 | Peroxide value ([3]; 50° C., day 45, 200 ppm): 60.884 | Peroxide value ([3]; 50° C., day 52, 200 ppm): 51.15 | Peroxide value ([3]; 50° C., day 60, 200 ppm): 42.269 | Peroxide value ([3]; 50° C., day 67, 200 ppm): 34.974 | Peroxide value ([3]; 50° C., day 75, 200 ppm): 25.576 | Peroxide value ([3]; 50° C., day 82, 200 ppm): 11.31 | Peroxide value ([3]; 50° C., day 90, 200 ppm): 15.231 | Peroxide value [3, 15]: 0.465 | Peroxide value [3, 16]: 0.868 | Peroxide value [3, 17]: 1.691 | Peroxide value [3, 18]: 2.684 | Peroxide value [3, 19]: 4.034 | Peroxide value [3, 20]: 4.748 | Peroxide value [3, 21]: 5.034 | Peroxide value [3, 22]: 5.316 | Peroxide value [3, 23]: 6.307 | Peroxide value [3, 24]: 7.887 | Peroxide value [3, 25]: 8.617 | Peroxide value [3, 26]: 11.307 | Peroxide value [3, 27]: 12.75 | days after which peroxide value crosses threshold limit ([3]; ambient temperature, threshold 10 meq of O2/Kg oil): 165 days | Shelf Life (days) at 30° C. [4]: 87.2 days | frying cycle after which threshold limit for total polar compounds is crossed [5]: 40 cycle | Induction Period (h) of PO at 120° C. [6]: 9.88 h | Shelf Life (No. Of Days) [7]: 37 days | Oxidative Stability Index (OSI) ([8]; 100° C.): 1.08 | Induction Time at 200 ppm ([8]; 100° C.): 29.16 | Oxidative Stability Index (OSI) ([8]; 120° C.): 1.13 | Induction Time at 200 ppm ([8]; 120° C.): 6.66 | Oxidative Stability Index (OSI) ([8]; 140° C.): 1.06 | Induction Time at 200 ppm ([8]; 140° C.): 1.57 | Oxidative Stability Index (OSI) ([9]; 100° C.): 1.14 | Induction Time ([9]; 100° C.): 25.14 | Oxidative Stability Index (OSI) ([9]; 120° C.): 1.21 | Induction Time ([9]; 120° C.): 6.11 | Oxidative Stability Index (OSI) ([9]; 140° C.): 1.11 | Induction Time ([9]; 140° C.): 1.52 | Shelf Life (days) at 30° C. [10]: 260.9 days | Induction Period (h) of SFO 100° C. [11]: 13.33 h | Induction Time ([12]; 80° C.): 50.39 h | Oxidative Stability Index (OSI) ([12]; 80° C.): 1.38 | Induction Time ([12]; 100° C.): 13.33 h | Oxidative Stability Index (OSI) ([12]; 100° C.): 1.43 | Induction Time ([12]; 120° C.): 2.64 h | Oxidative Stability Index (OSI) ([12]; 120° C.): 1.12 | Total Polar compounds of sunflower oil ([13]; frying cycle 0): 3.515 | Total Polar compounds of sunflower oil ([13]; frying cycle 8): 6.958 | Total Polar compounds of sunflower oil ([13]; frying cycle 16): 14.124 | Total Polar compounds of sunflower oil ([13]; frying cycle 24): 20.105 | Total Polar compounds of sunflower oil ([13]; frying cycle 32): 26.085 | Total Polar compounds of sunflower oil ([13]; frying cycle 40): 31.692 | frying cycle after which threshold limit for total polar compounds is crossed ([13]; sunflower oil): 40 cycle | Para-anisidine value ([14]; 50° C., day 0, 200 ppm): 2.69 | Para-anisidine value ([14]; 50° C., day 7, 200 ppm): 3.186 | Para-anisidine value ([14]; 50° C., day 15, 200 ppm): 4.011 | Para-anisidine value ([14]; 50° C., day 22, 200 ppm): 4.204 | Para-anisidine value ([14]; 50° C., day 30, 200 ppm): 5.542 | Para-anisidine value ([14]; 50° C., day 37, 200 ppm): 5.617 | Para-anisidine value ([14]; 50° C., day 45, 200 ppm): 5.794 | Para-anisidine value ([14]; 50° C., day 52, 200 ppm): 5.827 | Para-anisidine value ([14]; 50° C., day 60, 200 ppm): 6.165 | Para-anisidine value ([14]; 50° C., day 67, 200 ppm): 6.22 | Para-anisidine value ([14]; 50° C., day 75, 200 ppm): 6.269 | Para-anisidine value ([14]; 50° C., day 82, 200 ppm): 6.503 | Para-anisidine value ([14]; 50° C., day 90, 200 ppm): 6.657 | Para-anisidine value [14, 15]: 2.566 | Para-anisidine value [14, 16]: 2.602 | Para-anisidine value [14, 17]: 3.18 | Para-anisidine value [14, 18]: 2.899 | Para-anisidine value [14, 19]: 2.759 | Para-anisidine value [14, 20]: 2.952 | Para-anisidine value [14, 21]: 3.113 | Para-anisidine value [14, 22]: 3.455 | Para-anisidine value [14, 23]: 3.499 | Para-anisidine value [14, 24]: 3.593 | Para-anisidine value [14, 25]: 3.759 | Para-anisidine value [14, 26]: 4.169 | Para-anisidine value [14, 27]: 4.493

— patent US20140248361A1, “HERBAL EXTRACT COMPOSITION AND A PROCESS THEREOF” (PRASAN SOLUTIONS (INDIA) PVT LTD, priority 2012, published 2014)
